This data set in a line: recombinant UMI read abundance after kanamycin selection (control-corrected) (log10(CPM+1)); higher = more efficient recombination; extreme values may be limits of the assay; sequences stand for … in AGTGCAGAGAAAATCGGCCAGTTTTCTCTGCCTGCAGTCCGCATGCCGTGGGACCCCTTGGGTTCTAACCTGTTGCCTAGATTTATGCAGCGGACTGCCTTTCTCCCAAAGTGATAAACCGG…AGGTTGGTTTCACT; site = the 11-nt donor. An outline of the steps:
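Each donor and donor-binding-loop pair was tracked by a 12-nt UMI on a plasmid carrying a promoterless kanamycin gene. With a second plasmid supplying a fixed target and T7-inducible IS621 bridge recombinase, the pool was plated in Escherichia coli on IPTG (0.07 mM) plus kanamycin or unselected. Sequencing of recombinant UMIs across the donor–target junction gave counts expressed as log10(CPM+1) after replicate averaging and control-derived scaling.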
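Also: IS621 bridge recombinase in Escherichia coli cells against a fixed T5 target plasmid.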

As to “TACAATTCATGGACCGGTTTTCCCGGTAATCCGTATTTGCC (site TTCAATTCTGG)”, the “recombinant UMI read abundance (log10)” value was 0.

In the case of “TACAGCGCATGGACCGGTTTTCCCGGTAATCCGTATTTGGC (site TACAGCGCTGC)”, the “recombinant UMI read abundance (log10)” value was 2.37.

Regarding “TACAGTACATGGACCGGTTTTCCCGGTAATCCGTATTTGGT (site TACAGTACTAC)”, the “recombinant UMI read abundance (log10)” value came out at 0.439.

“TACAGTCCATGGACCGGTTTTCCCGGTAATCCGTATTTGCG (site TACAGTCCTCG)”: the “recombinant UMI read abundance (log10)” value came out at 0.004.

For “TACATAGCATGGACCGGTTTTCCCGGTAATCCGTATTTGGG (site TACATAGCTCC)”, the “recombinant UMI read abundance (log10)” value is 0.013.

Turning to “TACATGGCATGGACCGGTTTTCCCGGTAATCCGTATTTGCT (site TACATGGCTAG)”, the “recombinant UMI read abundance (log10)” value is 1.32.

Regarding “TACCACACATGGACCGGTTTTCCCGGTAATCCGTATTTGTC (site TACCACACTGA)”, the “recombinant UMI read abundance (log10)” value was found to be 2.09.

In the case of “TACCTAGCATGGACCGGTTTTCCCGGTAATCCGTATTTGAA (site TAACTAGCTTT)”, the “recombinant UMI read abundance (log10)” value was determined as 0.

Turning to “TACCTAGCATGGACCGGTTTTCCCGGTAATCCGTATTTGAA (site TACCTAGCTTT)”, the “recombinant UMI read abundance (log10)” value amounted to 0.00543.

With “TACCTAGCATGGACCGGTTTTCCCGGTAATCCGTATTTGAA (site TAGCTAGCTTT)”, the “recombinant UMI read abundance (log10)” value came out at 0.

“TACCTAGCATGGACCGGTTTTCCCGGTAATCCGTATTTGAA (site TATCTAGCTTT)”: the “recombinant UMI read abundance (log10)” value worked out at 0.0166.

“TACCTGACATGGACCGGTTTTCCCGGTAATCCGTATTTGTG (site TACCTGACTCA)”: the “recombinant UMI read abundance (log10)” value is 0.0209.

On to “TACGACGCATGGACCGGTTTTCCCGGTAATCCGTATTTGGG (site TACGACGCTCC)”, for which the “recombinant UMI read abundance (log10)” value was 0.012.

With “TACGGAACATGGACCGGTTTTCCCGGTAATCCGTATTTGCT (site TACGGAACTAG)”, the “recombinant UMI read abundance (log10)” value was 0.249.

For the sequence “TACGGACCATGGACCGGTTTTCCCGGTAATCCGTATTTGTC (site TACGGACCTGA)”, the “recombinant UMI read abundance (log10)” value is 0.

Regarding “TACGGCCCATGGACCGGTTTTCCCGGTAATCCGTATTTGCG (site TACGGCCCTCG)”, the “recombinant UMI read abundance (log10)” value was 0.024.

As for “TACGTCACATGGACCGGTTTTCCCGGTAATCCGTATTTGGG (site TACGTCACTCC)”, the “recombinant UMI read abundance (log10)” value came out at 0.0239.

For “TACGTGACATGGACCGGTTTTCCCGGTAATCCGTATTTGCA (site TACGTGACTTG)”, the “recombinant UMI read abundance (log10)” value was found to be 2.29.

With “TACTAGACATGGACCGGTTTTCCCGGTAATCCGTATTTGCT (site TACTAGACTAG)”, the “recombinant UMI read abundance (log10)” value stood at 1.84.

Turning to “TACTAGACATGGACCGGTTTTCCCGGTAATCCGTATTTGCT (site TACTCGACTAG)”, the “recombinant UMI read abundance (log10)” value was found to be 0.00336.

Take “TACTAGACATGGACCGGTTTTCCCGGTAATCCGTATTTGCT (site TACTGGACTAG)”: the “recombinant UMI read abundance (log10)” value is 0.

“TACTAGACATGGACCGGTTTTCCCGGTAATCCGTATTTGCT (site TACTTGACTAG)”: the “recombinant UMI read abundance (log10)” value was determined as 0.

In the case of “TACTAGTCATGGACCGGTTTTCCCGGTAATCCGTATTTGGA (site TACTAGTCTTC)”, the “recombinant UMI read abundance (log10)” value was 1.59.

Regarding “TACTCCTCATGGACCGGTTTTCCCGGTAATCCGTATTTGCC (site AACTCCTCTGG)”, the “recombinant UMI read abundance (log10)” value came to 0.934.

As to “TACTCCTCATGGACCGGTTTTCCCGGTAATCCGTATTTGCC (site CACTCCTCTGG)”, the “recombinant UMI read abundance (log10)” value came to 1.86.

With “TACTCCTCATGGACCGGTTTTCCCGGTAATCCGTATTTGCC (site GACTCCTCTGG)”, the “recombinant UMI read abundance (log10)” value was 0.715.

“TACTCCTCATGGACCGGTTTTCCCGGTAATCCGTATTTGCC (site TACTCCTCTGG)”: the “recombinant UMI read abundance (log10)” value worked out at 2.63.

As for “TACTCGACATGGACCGGTTTTCCCGGTAATCCGTATTTGCT (site TACTAGACTAG)”, the “recombinant UMI read abundance (log10)” value was 0.956.

With “TACTCGACATGGACCGGTTTTCCCGGTAATCCGTATTTGCT (site TACTCGACTAG)”, the “recombinant UMI read abundance (log10)” value stood at 1.49.

For “TACTCGACATGGACCGGTTTTCCCGGTAATCCGTATTTGCT (site TACTGGACTAG)”, the “recombinant UMI read abundance (log10)” value is 0.00865.

In the case of “TACTCGACATGGACCGGTTTTCCCGGTAATCCGTATTTGCT (site TACTTGACTAG)”, the “recombinant UMI read abundance (log10)” value came out at 1.01.

On to “TACTCGACATGGACCGGTTTTCCCGGTAATCCGTATTTGTC (site TACTCGACTGA)”, for which the “recombinant UMI read abundance (log10)” value stood at 0.0119.

“TACTGCGCATGGACCGGTTTTCCCGGTAATCCGTATTTGAC (site TACTGCGCTGT)”: the “recombinant UMI read abundance (log10)” value was 1.9.

In the case of “TACTGGTCATGGACCGGTTTTCCCGGTAATCCGTATTTGAC (site TACTGGTCTGT)”, the “recombinant UMI read abundance (log10)” value came out at 1.07.

For the sequence “TACTTCGCATGGACCGGTTTTCCCGGTAATCCGTATTTGAT (site TACTTCGCTAT)”, the “recombinant UMI read abundance (log10)” value turned out to be 0.583.

As for “TACTTCTCATGGACCGGTTTTCCCGGTAATCCGTATTTGTT (site TACTTCTCTAA)”, the “recombinant UMI read abundance (log10)” value turned out to be 1.35.

Take “TACTTGACATGGACCGGTTTTCCCGGTAATCCGTATTTGAT (site TACTTGACTAA)”: the “recombinant UMI read abundance (log10)” value was 0.0207.

With “TACTTGACATGGACCGGTTTTCCCGGTAATCCGTATTTGAT (site TACTTGACTAC)”, the “recombinant UMI read abundance (log10)” value came to 0.015.

Take “TACTTGACATGGACCGGTTTTCCCGGTAATCCGTATTTGAT (site TACTTGACTAG)”: the “recombinant UMI read abundance (log10)” value is 0.00211.

Turning to “TACTTGACATGGACCGGTTTTCCCGGTAATCCGTATTTGAT (site TACTTGACTAT)”, the “recombinant UMI read abundance (log10)” value amounted to 0.476.

As for “TACTTGACATGGACCGGTTTTCCCGGTAATCCGTATTTGCG (site TACTTGACTAG)”, the “recombinant UMI read abundance (log10)” value was determined as 0.00183.

For the sequence “TACTTGACATGGACCGGTTTTCCCGGTAATCCGTATTTGCG (site TACTTGACTCG)”, the “recombinant UMI read abundance (log10)” value is 0.524.

Take “TACTTGACATGGACCGGTTTTCCCGGTAATCCGTATTTGCG (site TACTTGACTGG)”: the “recombinant UMI read abundance (log10)” value was determined as 0.

“TACTTGACATGGACCGGTTTTCCCGGTAATCCGTATTTGCG (site TACTTGACTTG)”: the “recombinant UMI read abundance (log10)” value stood at 0.

As for “TACTTGACATGGACCGGTTTTCCCGGTAATCCGTATTTGTT (site TACTTGACTAA)”, the “recombinant UMI read abundance (log10)” value stood at 0.00709.

Take “TACTTGACATGGACCGGTTTTCCCGGTAATCCGTATTTGTT (site TACTTGACTAC)”: the “recombinant UMI read abundance (log10)” value is 0.0106.

“TACTTGACATGGACCGGTTTTCCCGGTAATCCGTATTTGTT (site TACTTGACTAG)”: the “recombinant UMI read abundance (log10)” value worked out at 0.00636.

As to “TACTTGACATGGACCGGTTTTCCCGGTAATCCGTATTTGTT (site TACTTGACTAT)”, the “recombinant UMI read abundance (log10)” value was determined as 0.00466.

In the case of “TACTTGGCATGGACCGGTTTTCCCGGTAATCCGTATTTGCT (site TACTTGACTAG)”, the “recombinant UMI read abundance (log10)” value was 0.00409.

Take “TACTTGGCATGGACCGGTTTTCCCGGTAATCCGTATTTGCT (site TACTTGCCTAG)”: the “recombinant UMI read abundance (log10)” value was 0.00558.

Regarding “TACTTGGCATGGACCGGTTTTCCCGGTAATCCGTATTTGCT (site TACTTGGCTAG)”, the “recombinant UMI read abundance (log10)” value worked out at 0.00377.

For the sequence “TACTTGGCATGGACCGGTTTTCCCGGTAATCCGTATTTGCT (site TACTTGTCTAG)”, the “recombinant UMI read abundance (log10)” value was found to be 0.

Take “TACTTGGCATGGACCGGTTTTCCCGGTAATCCGTATTTGGA (site AACTTGGCTTC)”: the “recombinant UMI read abundance (log10)” value is 0.0162.

“TACTTGGCATGGACCGGTTTTCCCGGTAATCCGTATTTGGA (site CACTTGGCTTC)”: the “recombinant UMI read abundance (log10)” value turned out to be 0.00371.

For “TACTTGGCATGGACCGGTTTTCCCGGTAATCCGTATTTGGA (site GACTTGGCTTC)”, the “recombinant UMI read abundance (log10)” value turned out to be 0.00882.

Consider “TACTTGGCATGGACCGGTTTTCCCGGTAATCCGTATTTGGA (site TACTTGGCTTC)”, for which the “recombinant UMI read abundance (log10)” value was determined as 0.216.

In the case of “TACTTGTCATGGACCGGTTTTCCCGGTAATCCGTATTTGGG (site TACTTGTCTCC)”, the “recombinant UMI read abundance (log10)” value was 0.17.

With “TACTTTACATGGACCGGTTTTCCCGGTAATCCGTATTTGCT (site TACTTAACTAG)”, the “recombinant UMI read abundance (log10)” value was 0.

For “TACTTTACATGGACCGGTTTTCCCGGTAATCCGTATTTGCT (site TACTTCACTAG)”, the “recombinant UMI read abundance (log10)” value turned out to be 1.36.

For “TACTTTACATGGACCGGTTTTCCCGGTAATCCGTATTTGCT (site TACTTGACTAG)”, the “recombinant UMI read abundance (log10)” value stood at 0.00292.

In the case of “TACTTTACATGGACCGGTTTTCCCGGTAATCCGTATTTGCT (site TACTTTACTAG)”, the “recombinant UMI read abundance (log10)” value worked out at 1.01.

Consider “TAGAATACATGGACCGGTTTTCCCGGTAATCCGTATTTGGA (site TAGAATACTTA)”, for which the “recombinant UMI read abundance (log10)” value was determined as 0.00272.

Turning to “TAGAATACATGGACCGGTTTTCCCGGTAATCCGTATTTGGA (site TAGAATACTTC)”, the “recombinant UMI read abundance (log10)” value turned out to be 1.99.

With “TAGAATACATGGACCGGTTTTCCCGGTAATCCGTATTTGGA (site TAGAATACTTG)”, the “recombinant UMI read abundance (log10)” value worked out at 0.

For the sequence “TAGAATACATGGACCGGTTTTCCCGGTAATCCGTATTTGGA (site TAGAATACTTT)”, the “recombinant UMI read abundance (log10)” value is 0.731.

For “TAGACAACATGGACCGGTTTTCCCGGTAATCCGTATTTGAG (site TAGACAACTCT)”, the “recombinant UMI read abundance (log10)” value stood at 0.821.

Take “TAGAGCGCATGGACCGGTTTTCCCGGTAATCCGTATTTGTG (site TAGAGCGCTCA)”: the “recombinant UMI read abundance (log10)” value amounted to 1.05.

As to “TAGAGTACATGGACCGGTTTTCCCGGTAATCCGTATTTGCA (site TAGAATACTTG)”, the “recombinant UMI read abundance (log10)” value worked out at 1.37.

The record behind these values is the supplement of paper PMC11208160.
